Test results from patent US20230126298A1, “DEUYERATED TRYPTAMINE DERIVATIVE FORMULATIONS AND METHODS OF USE” (priority 2020, published 2023).

Experiments:
[1] = Metabolic stability in rat liver microsomes (RLM); conditions: for RLM, metabolized or not (R / NR): last time point 120 min; for RLM, % (half-life as % vs. the related nondeuterated compound): values in square brackets are within 10% (assay's accuracy), no deuteration effect; for metabolic stability in RLM, in words: deuterated vs. comparator
hrMAO-A = biological target: T1, hrMAO-A (Homo sapiens, UniProt P21397); test: Metabolic stability in the presence of hrMAO-A; format: in vitro ADME; conditions: for MAO, metabolized or not (R / NR): last time point 120 min
T1 construct: purchased XenoTech Lot #8213001
T1 sequence (P21397 1-527): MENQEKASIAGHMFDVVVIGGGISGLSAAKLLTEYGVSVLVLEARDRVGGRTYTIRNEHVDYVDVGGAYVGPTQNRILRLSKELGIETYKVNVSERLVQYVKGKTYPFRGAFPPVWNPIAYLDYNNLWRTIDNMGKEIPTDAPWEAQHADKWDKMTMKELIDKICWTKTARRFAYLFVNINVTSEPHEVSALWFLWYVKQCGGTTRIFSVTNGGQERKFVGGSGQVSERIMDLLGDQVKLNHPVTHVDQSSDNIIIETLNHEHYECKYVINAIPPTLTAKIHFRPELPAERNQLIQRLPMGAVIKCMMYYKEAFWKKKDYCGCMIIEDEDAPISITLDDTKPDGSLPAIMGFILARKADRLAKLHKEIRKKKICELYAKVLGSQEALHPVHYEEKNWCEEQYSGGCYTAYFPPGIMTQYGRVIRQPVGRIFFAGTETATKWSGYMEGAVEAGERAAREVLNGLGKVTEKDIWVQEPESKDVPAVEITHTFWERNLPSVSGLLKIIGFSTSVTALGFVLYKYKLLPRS
Protocol: The reaction mixture was prepared as described below. The co-dosed TAs were added into the reaction mixture at a final concentration of 1 microM each. The positive control, kynuramine (25 microM), was run simultaneously with the TAs in a separate reaction. The reaction mixture (without TAs or kynuramine) was equilibrated in a shaking water bath at 37° C. for 5 minutes. The reaction was initiated by the addition of the TAs or kynuramine, and the mixture was incubated in a shaking water bath at 37° C. Aliquots (100 microL) of the TA reaction mixture were withdrawn at 0, 5, 10, 20, 30, 60, and 120 minutes. Aliquots (100 microL) of the positive control reaction mixture were withdrawn at 0 and 30 minutes. TA and kynuramine samples were immediately combined with 100 microL of ice-cold 100% MeCN containing 0.1% formic acid and IS to terminate the reaction. The samples were then mixed and centrifuged to precipitate proteins. All TA samples were assayed by LC-HRAMS. The PARR (analyte to IS) at each time point was compared to the PARR at time 0 to determine the percent remaining at each time point. Reaction composition: hrMAO 0.02 mg/mL; Potassium Phosphate, pH 7.4 100 mM; Magnesium Chloride 5 mM; Test Articles (each) 1 microM.

[2] = oral; cited from earlier work
[3] = Blood-to-plasma ratio (BPR), drug in brain and plasma of rats; format: in vivo; conditions: rat, % change vs. non-deuterated material
Protocol: (§1) The key PK parameters (presented as a % change vs. non-deuterated materials) are presented in Table 3 to include half-life (T1/2), area under the curve (AUC), bioavailability (F) and blood-to-plasma ration (BPR). Pharmacokinetics of the deuterated tryptamines was studied in rats. In a typical experiment, run as a cassette dosing, two groups of 5 Wistar female rats (200-250 g) with surgically inserted jugular vein catheter (Charles River, Andover, Mass.) were fasted for 12 h and then administered 5 mg/kg of the deuterated and 5 mg/kg of the related non-deuterated analog, by oral gavage or via a catheter for each group. At time points 0, 15, 30, 60 min, and 2, 4, 8, and 24 h, the resulting plasma was analyzed for the parent molecule using LC/MS spectroscopy. Two separate groups of 5 animals were used for determining blood-to-plasma ratio (BPR). Each group was sacrificed at time points 15 and 30 min, respectively, and the concentration of the parent drug was determined in the […] and plasma by LC/MS spectroscopy.

[4] = PK study in rats, cassette dosing, oral gavage or catheter; format: in vivo; conditions: rat, 5 mg/kg, % change vs. non-deuterated material; for Deuterium kinetic isotope effect (% change) F: bioavailability
Protocol: as §1

Structure (SMILES): C=CCN(CC=C)CCc1c[nH]c2ccccc12
- RLM, metabolized or not (R / NR) ([1]; RLM): R

Structure (SMILES): C=CCNCCc1c[nH]c2ccccc12
- RLM, metabolized or not (R / NR) ([1]; RLM): R

Structure (SMILES): [2H]C([2H])([2H])C([2H])([2H])NC([2H])([2H])C([2H])([2H])c1c[nH]c2cccc(O)c12
- RLM, % (half-life as % vs. the related nondeuterated compound) ([1]; RLM): [93] %

Structure (SMILES): CCN(CC)CCc1c[nH]c2ccccc12
- RLM, metabolized or not (R / NR) ([1]; RLM): R

Structure (SMILES): [2H]C([2H])(c1c[nH]c2ccc(OC)cc12)C([2H])([2H])N(CC)CC
- RLM, % (half-life as % vs. the related nondeuterated compound) ([1]; RLM): [95] %

Structure (SMILES): CCN(CC)CCc1c[nH]c2ccc(OC)cc12
- RLM, metabolized or not (R / NR) ([1]; RLM): R

Structure (SMILES): CCN(CC)CCc1c[nH]c2ccc(O)cc12
- RLM, metabolized or not (R / NR) ([1]; RLM): R

Structure (SMILES): CCN(CC)CCc1c[nH]c2cccc(OC)c12
- RLM, metabolized or not (R / NR) ([1]; RLM): R

Structure (SMILES): [2H]c1ccc2[nH]c([2H])c(CCN([2H])CC)c2c1O
- RLM, metabolized or not (R / NR) ([1]; RLM): R

Structure (SMILES): [2H]C([2H])(NCC)C([2H])([2H])c1c[nH]c2ccccc12
- MAO, % (half-life as % vs. the related nondeuterated compound) (hrMAO-A; MAO-A, values in square brackets are within 10% (assay's accuracy), no deuteration effect): 140%

Structure (SMILES): [2H]C([2H])(NCC)C([2H])([2H])c1c[nH]c2cccc(O)c12
- RLM, % (half-life as % vs. the related nondeuterated compound) ([1]; RLM): [94] %

Structure (SMILES): CCNCCc1c[nH]c2cccc(O)c12
- RLM, metabolized or not (R / NR) ([1]; RLM): R

Structure (SMILES): [2H]C([2H])(c1c[nH]c2cccc(OC)c12)C([2H])([2H])N(C)C
- RLM, % (half-life as % vs. the related nondeuterated compound) ([1]; RLM): 190%

Structure (SMILES): [2H]C([2H])(NC)C([2H])([2H])c1c[nH]c2cccc(O)c12
- RLM, % (half-life as % vs. the related nondeuterated compound) ([1]; RLM): 160%

Structure (SMILES): CC(C)NCCc1c[nH]c2ccccc12
- RLM, metabolized or not (R / NR) ([1]; RLM): R

Structure (SMILES): CC(C)NCCc1c[nH]c2cccc(O)c12
- RLM, metabolized or not (R / NR) ([1]; RLM): R

Structure (SMILES): [2H]C([2H])(c1c[nH]c2cccc(O)c12)C([2H])([2H])N(C(C)C)C(C)C
- RLM, % (half-life as % vs. the related nondeuterated compound) ([1]; RLM): [97] %

Structure (SMILES): CC(C)N(CCc1c[nH]c2cccc(O)c12)C(C)C
- RLM, metabolized or not (R / NR) ([1]; RLM): R

Structure (SMILES): COc1cc(CCNCc2ccccc2OC)c(OC)cc1Cl [2C-C-NBOMe, 2-(4-Chloro-2,5-dimethoxyphenyl)-N-[(2-methoxyphenyl)methyl]ethan-1-amine]
- orally active dose [2]: ≥ 25 µg

Structure (SMILES): [2H]C([2H])(Cc1c[nH]c2ccc(OC)cc12)N(C)C [5-MeO-DMT-α,α-d2]
- Deuterium kinetic isotope effect (% change) BPR, 15 min [3]: 120%
- Deuterium kinetic isotope effect (% change) BPR, 30 min [3]: 180%
- Deuterium kinetic isotope effect (% change) AUC [4]: 60%
- Deuterium kinetic isotope effect (% change) T1/2 [4]: 30%
- Deuterium kinetic isotope effect (% change) F [4]: 200%

Structure (SMILES): CN(C)CCc1c[nH]c2ccccc12 [DMT, reference compound]
- % Remaining of Initial 0 min (hrMAO-A; hrMAO-A, Table 3): 100%
- Half-life (hrMAO-A; hrMAO-A, Table 3): 0.453 h
- % Remaining of Initial 0 min ([1]; RLM, Table 2): 100%
- % Remaining of Initial 20 min ([1]; RLM, 20 min, Table 2): 41.0%

Structure (SMILES): [2H]C([2H])(Cc1c[nH]c2ccccc12)N(C)C [DMT-d2]
- % Remaining of Initial 0 min (hrMAO-A; hrMAO-A, Table 3): 100%
- % Remaining of Initial 60 min (hrMAO-A; hrMAO-A, 60 min, Table 3): 76.0%
- Half-life (hrMAO-A; hrMAO-A, Table 3): > 2 h
- % Remaining of Initial 0 min ([1]; RLM, Table 2): 100%
- % Remaining of Initial 60 min ([1]; RLM, 60 min, Table 2): 32.0%

Structure (SMILES): [2H]C([2H])(c1c[nH]c2ccccc12)C([2H])([2H])N(C)C [DMT-d4]
- % Remaining of Initial 0 min (hrMAO-A; hrMAO-A, Table 3): 100%
- Half-life (hrMAO-A; hrMAO-A, Table 3): > 2 h
- % Remaining of Initial 0 min ([1]; RLM, Table 2): 100%

Structure (SMILES): [2H]C([2H])([2H])N(C([2H])([2H])[2H])C([2H])([2H])C([2H])([2H])c1c[nH]c2ccccc12 [DMT-d10]
- metabolism in the MAO-A enzymatic assay, in words (hrMAO-A): superiority
- % Remaining of Initial 0 min (hrMAO-A; hrMAO-A, Table 3): 100%
- % Remaining of Initial 0 min (hrMAO-A; hrMAO-A, Table 5 (d8 and d10 analogs)): 100.0%
- % Remaining of Initial 5 min (hrMAO-A; hrMAO-A, 5 min, Table 5): 99.0%
- Half-life (hrMAO-A; hrMAO-A, Table 3): > 2 h
- Half-life (hrMAO-A; hrMAO-A, Table 5): > 2 h
- % Remaining of Initial 0 min ([1]; RLM, Table 2): 100%
- % Remaining of Initial 0 min ([1]; RLM, Table 4 (d8 and d10 analogs)): 100%
- % Remaining of Initial 10 min ([1]; RLM, 10 min, Table 4): 56.0%
- metabolic stability in RLM, in words [1]: Further enhancement of metabolic stability

Structure (SMILES): [2H]c1[nH]c2c([2H])c([2H])c([2H])c([2H])c2c1C([2H])([2H])C([2H])([2H])N(C([2H])([2H])[2H])C([2H])([2H])[2H] [DMT-d15]
- metabolic stability in RLM, in words [1]: no improvement in half-life

Structure (SMILES): [2H]C([2H])(Cc1c[nH]c2cccc(O)c12)N(C)C [PI-α,α-d2]
- Deuterium kinetic isotope effect (% change) BPR, 15 min [3]: 100%
- Deuterium kinetic isotope effect (% change) BPR, 30 min [3]: 150%
- Deuterium kinetic isotope effect (% change) AUC [4]: 75%
- Deuterium kinetic isotope effect (% change) T1/2 [4]: 50%
- Deuterium kinetic isotope effect (% change) F [4]: 45%

Structure (SMILES): CCNCCc1c[nH]c2ccccc12 [reference compound]
- MAO, metabolized or not (R / NR) (hrMAO-A; MAO-A): R
- RLM, metabolized or not (R / NR) ([1]; RLM): R

Structure (SMILES): CCN(C)CCc1c[nH]c2ccccc12 [reference compound]
- MAO, metabolized or not (R / NR) (hrMAO-A; MAO-A): R
- RLM, metabolized or not (R / NR) ([1]; RLM): R

Structure (SMILES): CCN(C)CCc1c[nH]c2ccc(OC)cc12 [reference compound]
- MAO, metabolized or not (R / NR) (hrMAO-A; MAO-A): R
- RLM, metabolized or not (R / NR) ([1]; RLM): R

Structure (SMILES): CCN(C)CCc1c[nH]c2ccc(O)cc12 [reference compound]
- MAO, metabolized or not (R / NR) (hrMAO-A; MAO-A): R
- RLM, metabolized or not (R / NR) ([1]; RLM): R

Structure (SMILES): CCN(C)CCc1c[nH]c2cccc(OC)c12 [reference compound]
- MAO, metabolized or not (R / NR) (hrMAO-A; MAO-A): R
- RLM, metabolized or not (R / NR) ([1]; RLM): R

Structure (SMILES): COc1ccc2[nH]cc(CCN(C)C)c2c1 [reference compound]
- MAO, metabolized or not (R / NR) (hrMAO-A; MAO-A): R
- RLM, metabolized or not (R / NR) ([1]; RLM): R

Structure (SMILES): CN(C)CCc1c[nH]c2ccc(O)cc12 [reference compound]
- MAO, metabolized or not (R / NR) (hrMAO-A; MAO-A): R
- RLM, metabolized or not (R / NR) ([1]; RLM): R

Structure (SMILES): COc1cccc2[nH]cc(CCN(C)C)c12 [reference compound]
- MAO, metabolized or not (R / NR) (hrMAO-A; MAO-A): R
- RLM, metabolized or not (R / NR) ([1]; RLM): R

Structure (SMILES): CNCCc1c[nH]c2ccccc12 [reference compound]
- MAO, metabolized or not (R / NR) (hrMAO-A; MAO-A): R
- RLM, metabolized or not (R / NR) ([1]; RLM): R

Structure (SMILES): CNCCc1c[nH]c2cccc(O)c12 [reference compound]
- MAO, metabolized or not (R / NR) (hrMAO-A; MAO-A): R
- RLM, metabolized or not (R / NR) ([1]; RLM): R
